Where two headings read alike, the source gives them in different places.
Assays:
[1] = target: human Gal-3 (hGal-3) (Homo sapiens (Human), UniProt P17931); test: competitive binding assay: biotinylated hGal-3 binding to microplate-adsorbed asialofetuin (ASF)
Procedure, shortened: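 Serial DMSO dilutions of each compound; binding incubation of 3 hours at 4 °C with cold-buffer washes; detection using 80 ng/mL streptavidin-peroxidase for 1 hour, then ABTS. Multiple determinations were averaged to give the IC50.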

[2] = target: human Gal-1 (hGal-1) (Homo sapiens (Human), UniProt P09382); test: competitive binding assay: biotinylated hGal-1 binding to microplate-adsorbed asialofetuin (ASF); conditions: Table 15; read-out: IC50 (Galectin-1 inhibition)
Procedure, shortened: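 Spectrophotometric competition readout: after compound and biotinylated hGal-1 (300-1000 ng/mL) sit 3 h at 4° C on adsorbed asialofetuin, streptavidin-peroxidase (1 h, 4° C) and ABTS reveal residual binding. Reported IC50 values are means of repeat runs.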

[3] = Table 5, read-out: IC50 (Gal-3 inhibition)
[4] = Gal-3 inhibition, binding of biotinylated hGal-3 to ASF, mean values, read-out: IC50

Chain of human Gal-3 (hGal-3) (P17931 whole entry): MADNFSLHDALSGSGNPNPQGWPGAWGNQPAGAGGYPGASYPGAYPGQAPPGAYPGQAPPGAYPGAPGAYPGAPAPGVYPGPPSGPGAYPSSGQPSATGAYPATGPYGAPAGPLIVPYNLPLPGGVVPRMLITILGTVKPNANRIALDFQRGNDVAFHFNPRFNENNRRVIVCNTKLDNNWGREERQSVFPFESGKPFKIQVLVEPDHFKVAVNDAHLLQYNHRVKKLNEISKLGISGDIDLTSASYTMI
Chain of human Gal-1 (hGal-1) (P09382 whole entry): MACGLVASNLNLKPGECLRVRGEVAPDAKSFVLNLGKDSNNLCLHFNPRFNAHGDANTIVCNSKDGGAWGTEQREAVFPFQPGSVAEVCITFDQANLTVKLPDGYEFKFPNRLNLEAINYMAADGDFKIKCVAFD

SMILES	IC50 [1, 3]	IC50 [2]	IC50 [1, 4]
OC[C@H]1O[C@@H](S[C@@H](c2ncccc2C(F)(F)F)C2(O)CCCCC2)[C@H](O)[C@@H](n2cc(-c3cc(F)c(F)c(F)c3)nn2)[C@H]1O [Example 2.39.125S., (2S,3R,4S,5R,6R)-2-(((S)-(1-Hydroxycyclohexyl)(3-(trifluoromethyl)pyridin-2-yl)methyl)thio)-6-(hydroxymethyl)-4-(4-(3,4,5-trifluorophenyl)-1H-1,2,3-triazol-1-yl)tetrahydro-2H-pyran-3,5-diol]	3000 nM	21800 nM	
Cc1noc(C2CC2)c1C(S[C@@H]1O[C@H](CO)[C@H](O)[C@H](n2cc(-c3cc(F)c(F)c(F)c3)nn2)[C@H]1O)C1(O)CCCCC1 (stereo partly drawn) [Example 2.39.128., (2S,3R,4S,5R,6R)-2-(((5-Cyclopropyl-3-methylisoxazol-4-yl)(1-hydroxycyclohexyl)methyl)thio)-6-(hydroxymethyl)-4-(4-(3,4,5-trifluorophenyl)-1H-1,2,3-triazol-1-yl)tetrahydro-2H-pyran-3,5-diol]	210 nM	1110 nM	
Cc1noc(C2CC2)c1[C@@H](S[C@@H]1O[C@H](CO)[C@H](O)[C@H](n2cc(-c3cc(F)c(F)c(F)c3)nn2)[C@H]1O)C1(O)CCCCC1 [Example 2.39.128R., (2S,3R,4S,5R,6R)-2-(((R)-(5-Cyclopropyl-3-methylisoxazol-4-yl)(1-hydroxycyclohexyl)methyl)thio)-6-(hydroxymethyl)-4-(4-(3,4,5-trifluorophenyl)-1H-1,2,3-triazol-1-yl)tetrahydro-2H-pyran-3,5-diol]	190 nM	1030 nM	
Cc1noc(C2CC2)c1[C@H](S[C@@H]1O[C@H](CO)[C@H](O)[C@H](n2cc(-c3cc(F)c(F)c(F)c3)nn2)[C@H]1O)C1(O)CCCCC1 [Example 2.39.128S., (2S,3R,4S,5R,6R)-2-(((S)-(5-Cyclopropyl-3-methylisoxazol-4-yl)(1-hydroxycyclohexyl)methyl)thio)-6-(hydroxymethyl)-4-(4-(3,4,5-trifluorophenyl)-1H-1,2,3-triazol-1-yl)tetrahydro-2H-pyran-3,5-diol]	3210 nM	23200 nM	
Cc1ccccc1C(S[C@@H]1O[C@H](CO)[C@H](O)[C@H](n2cc(-c3cc(F)c(F)c(F)c3)nn2)[C@H]1O)C1(O)CCN(C)CC1 (stereo partly drawn) [Example 2.40.102., (2S,3R,4S,5R,6R)-2-(((4-Hydroxy-1-methylpiperidin-4-yl)(o-tolyl)methyl)thio)-6-(hydroxymethyl)-4-(4-(3,4,5-trifluorophenyl)-1H-1,2,3-triazol-1-yl)tetrahydro-2H-pyran-3,5-diol]	90 nM	730 nM	
CN1CCC(O)([C@@H](S[C@@H]2O[C@H](CO)[C@H](O)[C@H](n3cc(-c4cc(F)c(F)c(F)c4)nn3)[C@H]2O)c2ccccc2C(F)(F)F)CC1 [Example 2.40.112S., (2S,3R,4S,5R,6R)-2-(((S)-(4-Hydroxy-1-methylpiperidin-4-yl)(2-(trifluoromethyl)phenyl)methyl)thio)-6-(hydroxymethyl)-4-(4-(3,4,5-trifluorophenyl)-1H-1,2,3-triazol-1-yl)tetrahydro-2H-pyran-3,5-diol]	3950 nM	21700 nM	
Cc1nc(C)c([C@H](S[C@@H]2O[C@H](CO)[C@H](O)[C@H](n3cc(-c4cc(F)c(F)c(F)c4)nn3)[C@H]2O)C2(O)CCN(C)CC2)nc1C [Example 2.40.119S., (2S,3R,4S,5R,6R)-2-(((S)-(4-Hydroxy-1-methylpiperidin-4-yl)(3,5,6-trimethylpyrazin-2-yl)methyl)thio)-6-(hydroxymethyl)-4-(4-(3,4,5-trifluorophenyl)-1H-1,2,3-triazol-1-yl)tetrahydro-2H-pyran-3,5-diol]		10800 nM	3040 nM
CN1CCC(O)(C(S[C@@H]2O[C@H](CO)[C@H](O)[C@H](n3cc(-c4cc(F)c(F)c(F)c4)nn3)[C@H]2O)c2ncccc2C(F)(F)F)CC1 (stereo partly drawn) [Example 2.40.125., (2S,3R,4S,5R,6R)-2-(((4-Hydroxy-1-methylpiperidin-4-yl)(3-(trifluoromethyl)pyridin-2-yl)methyl)thio)-6-(hydroxymethyl)-4-(4-(3,4,5-trifluorophenyl)-1H-1,2,3-triazol-1-yl)tetrahydro-2H-pyran-3,5-diol]	200 nM	530 nM	
CN1CCC(O)([C@@H](S[C@@H]2O[C@H](CO)[C@H](O)[C@H](n3cc(-c4cc(F)c(F)c(F)c4)nn3)[C@H]2O)c2ncccc2C(F)(F)F)CC1 [Example 2.40.125S., (2S,3R,4S,5R,6R)-2-(((S)-(4-Hydroxy-1-methylpiperidin-4-yl)(3-(trifluoromethyl)pyridin-2-yl)methyl)thio)-6-(hydroxymethyl)-4-(4-(3,4,5-trifluorophenyl)-1H-1,2,3-triazol-1-yl)tetrahydro-2H-pyran-3,5-diol]	3650 nM	11200 nM	

Stronger by IC50 [2], values ahead:

IC50 [1, 3]	IC50 [2]	IC50 [1, 4]	SMILES
130 nM	420 nM		CN1CCC(O)(C(S[C@@H]2O[C@H](CO)[C@H](O)[C@H](n3cc(-c4cc(F)c(F)c(F)c4)nn3)[C@H]2O)c2ccccc2C(F)(F)F)CC1 (stereo partly drawn) [Example 2.40.112., (2S,3R,4S,5R,6R)-2-(((4-Hydroxy-1-methylpiperidin-4-yl)(2-(trifluoromethyl)phenyl)methyl)thio)-6-(hydroxymethyl)-4-(4-(3,4,5-trifluorophenyl)-1H-1,2,3-triazol-1-yl)tetrahydro-2H-pyran-3,5-diol]
	270 nM	100 nM	Cc1nc(C)c(C(S[C@@H]2O[C@H](CO)[C@H](O)[C@H](n3cc(-c4cc(F)c(F)c(F)c4)nn3)[C@H]2O)C2(O)CCN(C)CC2)nc1C (stereo partly drawn) [Example 2.40.119., (2S,3R,4S,5R,6R)-2-(((4-Hydroxy-1-methylpiperidin-4-yl)(3,5,6-trimethylpyrazin-2-yl)methyl)thio)-6-(hydroxymethyl)-4-(4-(3,4,5-trifluorophenyl)-1H-1,2,3-triazol-1-yl)tetrahydro-2H-pyran-3,5-diol]
60 nM	150 nM		CN1CCC(O)([C@H](S[C@@H]2O[C@H](CO)[C@H](O)[C@H](n3cc(-c4cc(F)c(F)c(F)c4)nn3)[C@H]2O)c2ccccc2C(F)(F)F)CC1 [Example 2.40.112R., (2S,3R,4S,5R,6R)-2-(((R)-(4-Hydroxy-1-methylpiperidin-4-yl)(2-(trifluoromethyl)phenyl)methyl)thio)-6-(hydroxymethyl)-4-(4-(3,4,5-trifluorophenyl)-1H-1,2,3-triazol-1-yl)tetrahydro-2H-pyran-3,5-diol]
	110 nM	50 nM	Cc1nc(C)c([C@@H](S[C@@H]2O[C@H](CO)[C@H](O)[C@H](n3cc(-c4cc(F)c(F)c(F)c4)nn3)[C@H]2O)C2(O)CCN(C)CC2)nc1C [Example 2.40.119R., (2S,3R,4S,5R,6R)-2-(((R)-(4-Hydroxy-1-methylpiperidin-4-yl)(3,5,6-trimethylpyrazin-2-yl)methyl)thio)-6-(hydroxymethyl)-4-(4-(3,4,5-trifluorophenyl)-1H-1,2,3-triazol-1-yl)tetrahydro-2H-pyran-3,5-diol]
20 nM	40 nM		CN1CCC(O)([C@H](S[C@@H]2O[C@H](CO)[C@H](O)[C@H](n3cc(-c4cc(F)c(F)c(F)c4)nn3)[C@H]2O)c2ncccc2C(F)(F)F)CC1 [Example 2.40.125R., (2S,3R,4S,5R,6R)-2-(((R)-(4-Hydroxy-1-methylpiperidin-4-yl)(3-(trifluoromethyl)pyridin-2-yl)methyl)thio)-6-(hydroxymethyl)-4-(4-(3,4,5-trifluorophenyl)-1H-1,2,3-triazol-1-yl)tetrahydro-2H-pyran-3,5-diol]

Source: patent US12404295B2, “(Hetero)aryl-methyl-thio-beta-D-galactopyranoside derivatives” (Idorsia Pharmaceuticals Ltd, priority 2019, dated 2025)
